This note sets out measurements from BindingDB's records for doi:10.3109/14756366.2011.599323 (China Pharmaceutical University, 2012).

One experiment has as its target Stromelysin-1 (Homo sapiens, UniProt P08254). As to the kind of experiment: MMP-3 Activity Assay. As to conditions: pH 7.4; 37 °C. The procedure: The activity of recombinant human MMP-3 (catalytic domain, Calbiochem) was detected with the substrate Mca-Arg-Pro-Lys-Pro-Val-Glu-Nval-Trp-Arg-Lys(Dnp)-NH2 (substrate II, R&D Systems Europe Ltd) (excitation wavelength = 320 nm, emission wavelength = 405 nm). These assays were performed at 37°C in 100 μl assay buffer. The reaction was started by adding 10 μl MMP-3 stock solution (1 ng/μl) to a 100 μl reaction system with a final substrate concentration of 10 μM, after which the rate of substrate hydrolysis was monitored.

For the next experiment, the target named is Neutrophil collagenase (Homo sapiens, UniProt P22894). The experiment is described as follows: MMP-8 Activity Assay. The note with it: pH 7.4; 37 °C. The procedure:
Recombinant human MMP-8 was purchased as an active form enzyme (Sino Biological Inc.). The enzyme activity was detected with the same fluorogenic peptidesubstrate as that for MMP-9. All MMP-8 assays were performed at 37°C in 100 μl assay buffer with 20 μl recombinant human MMP-8 (2 ng/μl). The final substrateconcentration was 10 μM.

Experiment [1] deals with Matrix metalloproteinase-9 (Homo sapiens, UniProt P14780). As to the kind of experiment: MMP-9 Activity Assay. The note with it: pH 7.4; 37 °C. As to the method:
Recombinant human MMP-9 was expressed in Sf9 insect cells and purified by gelatin-Sepharose affinity chromatography as described previously16,17. It was activated with 0.01 μM of the catalytic domain of MMP-3 (cd-MMP-3, Calbiochem) in assay buffer (100 mM Tris/HCl, pH 7.4, 100 mM NaCl, 10 mM CaCl2 and 0.01% Tween-20) at 92 ng/μl (1 μM) as a stock solution as described8. Hydrolysis of the substrate Mca-Pro-Leu-Gly-Leu-Dpa-Ala-Arg-NH2 (substrate I, R&D Systems Europe Ltd) was monitored by measuring the increase in fluorescence (excitation wavelength = 328 nm, emission wavelength = 392 nm) [Whittaker et al., Chem. Rev., 99:2735-2776]. All assays were performed at 37°C in 100 μl assay buffer. The reaction was started by adding 10 μl gelatinase B stock solution (0.92 ng/μl) to a 100 μl reaction system with a substrate concentration of 10 μM, after which the rate of substrate hydrolysis was monitored.

The target of experiment [2] is Disintegrin and metalloproteinase domain-containing protein 17 (Homo sapiens, UniProt P78536). The experiment is described as follows: TACE Activity Assay. The note with it: pH 9.0. As to the method:
TACE was purchased as an active form enzyme (R&D Systems). Hydrolysis of the TACE-substrate Mca-Pro-Leu-Ala-Gln-Ala-Val-Dpa-Arg-Ser-Ser-Ser-Arg-NH (substrateIII, R&D Systems Europe Ltd) was monitored by measuring the increase in fluorescence (excitation wavelength = 320 nm, emission wavelength = 405 nm). TACEassays were performed at 37°C in 100 μl assay buffer. The reaction was started by adding 4 μl TACE stock solution (1 ng/μl) to a 100 μl reaction system with a final substrate concentration of 10 μM, after which the rate of substrate hydrolysis was monitored.

Where a SMILES comes first, the peptide text is derived from it.

Chain of Neutrophil collagenase (P22894 whole entry): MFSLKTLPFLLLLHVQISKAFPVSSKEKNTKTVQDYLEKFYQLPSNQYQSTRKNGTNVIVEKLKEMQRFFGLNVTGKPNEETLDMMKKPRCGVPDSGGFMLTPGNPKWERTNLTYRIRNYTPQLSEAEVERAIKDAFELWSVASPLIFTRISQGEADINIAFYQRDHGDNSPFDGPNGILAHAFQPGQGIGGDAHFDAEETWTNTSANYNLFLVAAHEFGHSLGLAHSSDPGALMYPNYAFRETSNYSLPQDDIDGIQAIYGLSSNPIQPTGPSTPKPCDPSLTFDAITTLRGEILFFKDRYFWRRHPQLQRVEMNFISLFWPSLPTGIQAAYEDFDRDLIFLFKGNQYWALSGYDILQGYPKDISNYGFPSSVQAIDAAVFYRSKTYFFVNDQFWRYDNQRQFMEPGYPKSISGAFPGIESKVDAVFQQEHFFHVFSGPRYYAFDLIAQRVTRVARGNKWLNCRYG
Chain of Stromelysin-1 (P08254 whole entry, the tested form may be a part): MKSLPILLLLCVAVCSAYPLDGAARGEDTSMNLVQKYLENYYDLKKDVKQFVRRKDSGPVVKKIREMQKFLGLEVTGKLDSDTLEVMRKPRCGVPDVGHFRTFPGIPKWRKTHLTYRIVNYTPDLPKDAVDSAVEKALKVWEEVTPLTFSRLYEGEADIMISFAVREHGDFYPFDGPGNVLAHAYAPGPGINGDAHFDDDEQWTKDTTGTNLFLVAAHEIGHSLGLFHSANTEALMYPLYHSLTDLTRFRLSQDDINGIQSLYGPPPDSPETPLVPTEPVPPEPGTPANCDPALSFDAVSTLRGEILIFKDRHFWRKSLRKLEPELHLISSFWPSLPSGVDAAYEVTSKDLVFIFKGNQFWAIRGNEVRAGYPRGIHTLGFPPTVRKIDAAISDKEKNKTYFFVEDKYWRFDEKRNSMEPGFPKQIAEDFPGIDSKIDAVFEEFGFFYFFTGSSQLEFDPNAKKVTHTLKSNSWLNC
Chain of Disintegrin and metalloproteinase domain-containing protein 17 (P78536 whole entry, the tested form may be a part): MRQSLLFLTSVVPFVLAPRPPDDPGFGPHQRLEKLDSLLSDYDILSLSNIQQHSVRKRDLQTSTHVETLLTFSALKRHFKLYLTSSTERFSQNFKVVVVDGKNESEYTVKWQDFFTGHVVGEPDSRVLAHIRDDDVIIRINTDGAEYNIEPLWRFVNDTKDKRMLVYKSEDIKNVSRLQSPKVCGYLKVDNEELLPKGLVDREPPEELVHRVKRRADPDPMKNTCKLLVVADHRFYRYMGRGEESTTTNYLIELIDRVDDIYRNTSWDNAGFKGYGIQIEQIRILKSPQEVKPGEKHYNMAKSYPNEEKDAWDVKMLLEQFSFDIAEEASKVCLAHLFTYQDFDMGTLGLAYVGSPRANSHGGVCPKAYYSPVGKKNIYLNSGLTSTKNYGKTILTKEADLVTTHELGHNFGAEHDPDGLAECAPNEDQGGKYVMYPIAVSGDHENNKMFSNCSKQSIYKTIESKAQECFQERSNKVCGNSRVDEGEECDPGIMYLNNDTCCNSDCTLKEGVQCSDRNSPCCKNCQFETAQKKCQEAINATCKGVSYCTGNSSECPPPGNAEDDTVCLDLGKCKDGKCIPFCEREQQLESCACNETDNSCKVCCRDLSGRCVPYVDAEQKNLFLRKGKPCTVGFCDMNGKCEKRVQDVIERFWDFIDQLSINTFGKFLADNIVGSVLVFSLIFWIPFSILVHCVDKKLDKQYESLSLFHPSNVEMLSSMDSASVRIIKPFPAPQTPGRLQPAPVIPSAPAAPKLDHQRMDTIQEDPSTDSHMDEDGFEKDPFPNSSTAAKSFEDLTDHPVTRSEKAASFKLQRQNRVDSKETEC
Chain of Matrix metalloproteinase-9 (P14780 whole entry, the tested form may be a part): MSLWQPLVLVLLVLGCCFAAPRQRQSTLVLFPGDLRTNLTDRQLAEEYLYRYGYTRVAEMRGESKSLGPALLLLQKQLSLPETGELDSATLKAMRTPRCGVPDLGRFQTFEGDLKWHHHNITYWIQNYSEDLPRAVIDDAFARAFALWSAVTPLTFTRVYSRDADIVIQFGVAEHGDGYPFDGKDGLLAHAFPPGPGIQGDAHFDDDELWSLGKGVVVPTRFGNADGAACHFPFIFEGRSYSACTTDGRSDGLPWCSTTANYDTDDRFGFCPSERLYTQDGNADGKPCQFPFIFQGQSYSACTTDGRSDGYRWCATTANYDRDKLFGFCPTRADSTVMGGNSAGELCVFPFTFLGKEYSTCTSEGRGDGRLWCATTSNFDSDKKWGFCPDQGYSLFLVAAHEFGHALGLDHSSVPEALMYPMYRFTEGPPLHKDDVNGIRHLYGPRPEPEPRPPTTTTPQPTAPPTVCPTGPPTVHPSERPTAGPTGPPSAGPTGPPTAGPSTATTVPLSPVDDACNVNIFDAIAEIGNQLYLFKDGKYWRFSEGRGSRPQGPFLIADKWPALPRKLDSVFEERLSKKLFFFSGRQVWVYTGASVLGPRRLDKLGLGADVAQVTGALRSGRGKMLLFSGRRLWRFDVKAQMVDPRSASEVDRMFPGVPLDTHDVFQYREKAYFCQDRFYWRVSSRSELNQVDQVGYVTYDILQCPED

Consider `N=C(N)NCCC[C@H](NC(=O)[C@H](Cc1ccc(-c2ccccc2)cc1)NC(=O)[C@@H](CS)NC(=O)[C@@H](N)CCCNC(=N)N)C(=O)O` [Arg-(D-Cys)-Bip-Arg] (HELM PEPTIDE1{R.[dC].[O=C([C@H](Cc1ccc(-c2ccccc2)cc1)N[*:1])[*:2]].R}$$$$V2.0), for which the half-inhibitory concentration (IC50) (usually the concentration that gives 50% inhibition) stood at 22.5 µM on Stromelysin-1, 0.9 µM against Neutrophil collagenase, 0.9 µM in experiment [1] and 2.5 µM in experiment [2].

For the molecule `N=C(N)NCCC[C@H](N)C(=O)N[C@@H](CS)C(=O)N[C@H](Cc1ccc(-c2ccccc2)cc1)C(=O)N[C@H](CCCNC(=N)N)C(=O)O` [Arg-Cys-(D-Bip)-(D-Arg)] (HELM PEPTIDE1{R.C.[O=C([C@@H](Cc1ccc(-c2ccccc2)cc1)N[*:1])[*:2]].[dR]}$$$$V2.0), the IC50 on Stromelysin-1 was 19.5 µM; on Neutrophil collagenase, 2.3 µM; in experiment [1], 0.75 µM; in experiment [2], 20 µM.
